Here are results for one molecule from patent US7297551B2, “Recombinant proteins and peptides for endotoxin biosensors, endotoxin removal, and anti-microbial and anti-endotoxin therapeutics” (priority 1998, dated 2007).

Read-outs that look alike come from different tables or passages of the source. Peptide text beside a SMILES is read from it.

One data set has as its system P. aeruginosa. As to the kind of experiment: Microbicidal concentration (MBC) assay. It counts as cell-based, Pseudomonas aeruginosa. On the procedure: Test strains cultured on Mueller-Hinton agar (MHA, Becton Dickinson, USA) were inoculated into 10 ml Mueller-Hinton broth (MHB, Becton Dickinson, USA) and grown overnight at 37° C. in a shaker incubator (Model 4536, Forma Scientific, Inc., USA) at 230 rpm. Overnight broth cultures were diluted to give a final cell density of 10^5 colony forming units/ml (cfu/ml). One hundred microliters of the bacterial suspension was dispensed into sterile polypropylene 8-strip PCR-tubes (Quality Scientific Plastics, USA). Eleven microliters of serially diluted sushi peptides, ranging in final concentrations of 0.03-4 μg/ml, were then added. The peptides were constituted at 10 times the required test concentrations in 0.01% acetic acid and 0.2% bovine serum albumin (BSA). Positive controls were cultures without test peptides. Uninoculated MHB was used as negative control. All tests were carried out in triplicate.
Cultures were incubated at 37° C. for 18-24 h, with the PCR-tubes held in horizontal position and shaken at 230 rpm. Cell counts were determined by standard drop-count method. The killing efficiency for the four sushi peptides were calculated based on standard drop-count method.

For a further data set, the system named is P. aeruginosa ATCC 27853. As to the kind of experiment: Killing rate assay. It is filed as cell-based, Pseudomonas aeruginosa. Particulars: peptides at 0.06 μg/ml, initial 10^9 cfu/ml. An excerpt: The killing rate assay was adapted from the MBC test above, with different contact time of peptides with the bacteria arrested at regular intervals and plated for colony count. An initial density of 10^9 cfu/ml was used. […] This is one of the important features of an effective therapeutic agent.

A short description of data set [1]: Hill's plot for interaction between synthetic peptides and lipid A. Particulars: number of peptide molecules to 1 LPS molecule. It counts as binding.
A further data set deals with Human erythrocytes. As to the kind of experiment: Hemolysis assay, human erythrocytes. It counts as cell-based. Particulars: at 100 μg/ml. As to the method:
Human and rabbit erythrocytes were both used to test the hemolytic activities of the peptides. Whole blood was collected in heparinized sterile syringe, transferred to sterile borosilicate tube and centrifuged at 1200 g for 5 minutes at 4° C. The supernatant including the leukocytes above the erythrocyte pellet was discarded. The erythrocytes were washed 3 times using three volumes of prechilled pyrogen-free saline (PFS). An erythrocyte suspension at 0.4% was prepared for the hemolysis assay. Serial two-fold dilutions of the peptides was prepared in PFS and 100 μl aliquots were added to equal volumes of 0.4% erythrocyte solution in a 96-well microtiter plate (Nunclon™ Δ surface, Nunc) to give final peptide concentrations ranging from 6 to 100 μg/ml. The mixtures were incubated at 37° C. for 1 h. The intact erythrocytes were then pelleted by centrifuging at 1000 g for 5 min. One hundred μl of the supernatant was transferred to a new 96-well microtiter plate and the amount of hemoglobin released into the supernatant was determined by reading the absorbance at 414 nm using a SPECTRAmax™ 340 plate reader with SOFTmax PRO™ version 1.2.0. A positive control with 100 μl of 0.4% erythrocyte lysed in 1% Triton-X 100 was taken as 100% lysis. The negative control was the erythrocytes in PFS alone, which gave minimal lysis. This was taken as 0%.

Data set [2] in a line: Protection of galactosamine-sensitized mice from LPS-induced lethality. It counts as in vivo, C57BL/6J mice. The following applies: 75 μg peptide, 2 ng LPS pre-incubated with peptide 30 minutes. On the procedure:
The anti-endotoxin potency of SSCrFCES was investigated in C57BL/6J mice. Mice are typically resistant to endotoxin. However, the sensitivity of mice to endotoxin can be enhanced >1,000-fold by co-injection with a liver-specific inhibitor, galactosamine (31). […] […] Lethality was observed over 3 days after injection. Statistical analysis were performed using the Kaplan-Meier test (32) and log rank pairwise test.

The subject of data set [3] is LPS-induced hTNF-α secretion from THP-1. The experiment in a line: Inhibition of LPS-induced hTNF-α secretion from PMA-treated THP-1 cells. It counts as cell-based, human. As to the method:
[…] THP-1 cells were grown in RPMI 1640 medium supplemented with 10% FBS, penicillin (100 U/ml) and streptomycin (0.1 mg/ml), at 37° C. in a humidified environment in the presence of 5% CO2. The cells were maintained at a density between 2.5×10^5 and 2.5×10^6 cells/ml.
THP-1 cells were prepared for experiment by addition of a concentrated stock solution of phorbol myristate acetate (PMA, 0.3. mg/ml in dimethyl sulfoxide) to cell suspension to give a final concentration of 30 ng/ml PMA and 0.01% dimethyl sulfoxide (25). PMA-treated cell suspensions were immediately plated into 96-well microtitre plate at a density of 4×10^5 cells/ml and allowed to differentiate for 48 hours at 37° C. […] At indicated times, the culture medium was collected.

Regarding `CC[C@H](C)[C@H](NC(=O)[C@H](CCCCN)NC(=O)[C@H](C)NC(=O)[C@H](CCCCN)NC(=O)CNC(=O)[C@H](CCCCN)NC(=O)[C@H](CC(C)C)NC(=O)[C@H](CCCCN)NC(=O)[C@H](Cc1ccccc1)NC(=O)CN)C(=O)N[C@@H](CO)C(=O)N[C@@H](CS)C(=O)N[C@@H](CC(C)C)C(=O)N1CCC[C@H]1C(=O)N[C@@H](CC(N)=O)C(=O)NCC(=O)N[C@@H](CCC(N)=O)C(=O)N[C@@H](Cc1c[nH]c2ccccc12)C(=O)N[C@@H](CO)C(=O)N[C@@H](CC(N)=O)C(=O)N[C@@H](Cc1ccccc1)C(=O)N1CCC[C@H]1C(=O)N1CCC[C@H]1C(=O)N[C@@H](CCCCN)C(=O)N[C@@H](CS)C(=O)N[C@H](C(=O)N[C@@H](CCCNC(=N)N)C(=O)N[C@@H](CCC(=O)O)C(=O)N[C@@H](CS)C(=O)N[C@@H](C)C(=O)N[C@@H](CCSC)C(=O)N[C@H](C(=O)N[C@@H](CO)C(=O)N[C@@H](CO)C(=O)O)C(C)C)[C@@H](C)CC` [S1Δ] (H-GFKLKGKAKISCLPNGQWSNFPPKCIRECAMVSS-OH; N-terminus and C-terminus assumed), in the data set with P. aeruginosa (MBC), the “Anti-microbial Potency P. aeruginosa MBC90” value worked out at 0.06 mg/L. Also, in the data set on P. aeruginosa (P. aeruginosa), the MBC90 entry is on record as “(16 nM)”. Also, the “Killing rate (time to achieve MBC90)” value in the data set on P. aeruginosa ATCC 27853 stood at 7 min. For the same molecule, in data set [1], the “Stoichiometry of Binding Cooperativity Hill's Coefficient” value is recorded as 1.06. In addition, the Hemolytic activity result in the data set with Human erythrocytes is recorded as “negligible haemolysis”. In addition, the “Mouse Protection Assay” value in data set [2] turned out to be 40% at 75. Moreover, the IC50 in data set [3] (peptide needed for 50% suppression, read-out: Suppression of LPS-Induced cytokine TNF-α (50%)) was found to be 53 µM; in data set [3] (read-out: 50% inhibition of LPS-induced TNF-α release, 10 ng/ml LPS, serum-free), 53.3 µM.
